Laboratory results: patent EP2260303B1, “BIOMARKER FOR THE DIAGNOSIS OF A BRAIN TUMOR” (Meyer, Helmut E., priority 2008, dated 2009)
pEC50: −log10 of the molar value.

How the values were obtained:
[1] = system: Glioblastomzelllinie A172; assay: Chemosensitivity (dose-response curves, EC50) of A172 cell lines with modified biomarker expression; assay type: cell-based; conditions: Homo sapiens
Description: (§1) Alle erfindungsgemäßen Biomarker (SEQ ID No. 1 - 24), die in den differentiellen Untersuchungen identifiziert wurden, sind potentiell in der Lage an der Vermittlung der Chemosensitivität dieser Gliome beteiligt zu sein. Durch den Einsatz ausgewählter Zytostatika mit unterschiedlichen Wirkmechanismen kann überprüft werden, ob die erfindungsgemäßen Biomarker (SEQ ID No. 1 - 24) direkt mit dem Reaktionsmechanismus der in der Therapie üblichen Zytostatika wechselwirken. Hierzu wurden stabile Zelllinien hergestellt und die erfindungsgemäßen Biomarker verstärkt exprimiert (Überexpression) und vermindert (knock-down) exprimiert (siehe J. Sambrook, E.F. Fritsch, T. Maniatis (1989), Molecular cloning: A laboratory manual, 2nd Edition, Cold Spring Habor Laboratory Press, Cold Spring Habor, USA oder Ausubel, "Current Protocols in Molecular Biology", Green Publishing Associates and Wiley Interscience, N.Y. (1989)). Eingesetzte Zytostatika: Carmustin und Vincristin, zwei Substanzen aus dem in der Therapie üblichen PCV Polychemotherapieschema, und Temozolomid, einem in der Therapie […] maligner Gliome neueren Wirkstoff. Zur Auswertung eines Effekts wurden Dosis-Wirkungs-Kurven und deren Lage zueinander und der korrespondierende EC50 Wert (Effektkonzentration; EC-50-Wert besagt, dass bei dieser Konzentration des Stoffes die Hälfte der Versuchsorganismen Wirkungen zeigt) berechnet.

[2] = system: Glioblastomzelllinie T98G; assay: Chemosensitivity (dose-response curves, EC50) of T98G cell lines with modified biomarker expression; assay type: cell-based; conditions: Homo sapiens
Description: as §1

[3] = system: stabilen Zelllinien aus A172 und T98G; assay: Comparison of the response of the stable A172 and T98G cell lines to cytostatics (summary in words); assay type: cell-based, human; conditions: versus control; for Verschiebung der Konzentrationen (Dosis-Wirkungs-Kurven): both cell lines
Description: as §1
Eine veränderte Reaktion auf eine Behandlung mit Carmustin wurde in allen stabilen Zelllinien aus A172 sowie aus T98G beobachtet.
Einen ähnlichen Effekt zeigte die Behandlung der Zelllinien mit Vincristin. […] Dieses Verhalten wurde ebenfalls in den beiden Zelllinien beobachtet.

O=NN(CCCl)C(=O)NCCCl [Carmustin]
pEC50 ([1]; A 172, A172 knock-down of ANXA1, treatment with Carmustin): 4.02
pEC50 ([1]; A 172, A172 knock-down of CLIC1, treatment with Carmustin): 3.77
pEC50 ([1]; A 172, A172 knock-down of PRDX1, treatment with Carmustin): 3.97
pEC50 ([1]; A 172, A172 knock-down of VIL2, treatment with Carmustin): 4.04
pEC50 ([1]; A 172, A172 knock-down series, control cell line (Kontrolle), treatment with Carmustin): 4.03
pEC50 ([1]; A 172, A172 overexpressing ANXA1, treatment with Carmustin): 4.05
pEC50 ([1]; A 172, A172 overexpressing CLIC1, treatment with Carmustin): 3.98
pEC50 ([1]; A 172, A172 overexpressing PRDX1, treatment with Carmustin): 4.45
pEC50 ([1]; A 172, A172 overexpressing VIL2, treatment with Carmustin): 3.97
pEC50 ([1]; A 172, A172 overexpression series, control cell line (Kontrolle), treatment with Carmustin): 5.10
pEC50 ([2]; T98G knock-down of ANXA1, treatment with Carmustin): 3.92
pEC50 ([2]; T98G knock-down of CLIC1, treatment with Carmustin): 4.07
pEC50 ([2]; T98G knock-down of PRDX1, treatment with Carmustin): 3.93
pEC50 ([2]; T98G knock-down of VIL2, treatment with Carmustin): 3.80
pEC50 ([2]; T98G knock-down series, control cell line (Kontrolle), treatment with Carmustin): 3.82
pEC50 ([2]; T98G overexpressing ANXA1, treatment with Carmustin): 3.68
pEC50 ([2]; T98G overexpressing CLIC1, treatment with Carmustin): 3.46
pEC50 ([2]; T98G overexpressing PRDX1, treatment with Carmustin): 3.80
pEC50 ([2]; T98G overexpressing VIL2, treatment with Carmustin): 3.65
pEC50 ([2]; T98G overexpression series, control cell line (Kontrolle), treatment with Carmustin): 4.19

Cn1nnc2c(C(N)=O)ncn2c1=O [Temozolomid]
pEC50 ([1]; A 172, A172 knock-down of ANXA1, treatment with Temozolomid): 3.95
pEC50 ([1]; A 172, A172 knock-down of CLIC1, treatment with Temozolomid): 3.82
pEC50 ([1]; A 172, A172 knock-down of PRDX1, treatment with Temozolomid): 3.93
pEC50 ([1]; A 172, A172 knock-down of VIL2, treatment with Temozolomid): 3.94
pEC50 ([1]; A 172, A172 knock-down series, control cell line (Kontrolle), treatment with Temozolomid): 4.39
pEC50 ([1]; A 172, A172 overexpressing ANXA1, treatment with Temozolomid): 3.91
pEC50 ([1]; A 172, A172 overexpressing CLIC1, treatment with Temozolomid): 4.08
pEC50 ([1]; A 172, A172 overexpressing PRDX1, treatment with Temozolomid): 4.58
pEC50 ([1]; A 172, A172 overexpressing VIL2, treatment with Temozolomid): 4.08
pEC50 ([1]; A 172, A172 overexpression series, control cell line (Kontrolle), treatment with Temozolomid): 3.78
pEC50 ([2]; T98G knock-down of ANXA1, treatment with Temozolomid): 3.41
pEC50 ([2]; T98G knock-down of CLIC1, treatment with Temozolomid): 3.48
pEC50 ([2]; T98G knock-down of PRDX1, treatment with Temozolomid): 3.42
pEC50 ([2]; T98G knock-down of VIL2, treatment with Temozolomid): 3.46
pEC50 ([2]; T98G knock-down series, control cell line (Kontrolle), treatment with Temozolomid): 3.49
pEC50 ([2]; T98G overexpressing ANXA1, treatment with Temozolomid): 3.39
pEC50 ([2]; T98G overexpressing CLIC1, treatment with Temozolomid): 3.48
pEC50 ([2]; T98G overexpressing PRDX1, treatment with Temozolomid): 3.49
pEC50 ([2]; T98G overexpressing VIL2, treatment with Temozolomid): 3.40
pEC50 ([2]; T98G overexpression series, control cell line (Kontrolle), treatment with Temozolomid): 3.40
Sensitivität ([3]; biomarkers overexpressed, stable cell lines from A172 and T98G): erhöhte Sensitivität
Sensitivität ([3]; knock-down cell lines from A172 and T98G): umgekehrter Effekt

CC[C@]1(O)C[C@H]2CN(CCc3c([nH]c4ccccc34)[C@@](C(=O)OC)(c3cc4c(cc3OC)N(C=O)[C@H]3[C@@](O)(C(=O)OC)[C@H](OC(C)=O)[C@]5(CC)C=CCN6CC[C@]43[C@@H]65)C2)C1 [Vincristin]
pEC50 ([1]; A 172, A172 knock-down of ANXA1, treatment with Vincristin): 7.43
pEC50 ([1]; A 172, A172 knock-down of CLIC1, treatment with Vincristin): 7.19
pEC50 ([1]; A 172, A172 knock-down of PRDX1, treatment with Vincristin): 7.28
pEC50 ([1]; A 172, A172 knock-down of VIL2, treatment with Vincristin): 7.69
pEC50 ([1]; A 172, A172 knock-down series, control cell line (Kontrolle), treatment with Vincristin): 7.49
pEC50 ([1]; A 172, A172 overexpressing ANXA1, treatment with Vincristin): 7.82
pEC50 ([1]; A 172, A172 overexpressing CLIC1, treatment with Vincristin): 7.71
pEC50 ([1]; A 172, A172 overexpressing PRDX1, treatment with Vincristin): 7.90
pEC50 ([1]; A 172, A172 overexpressing VIL2, treatment with Vincristin): 8.48
pEC50 ([1]; A 172, A172 overexpression series, control cell line (Kontrolle), treatment with Vincristin): 7.82
pEC50 ([2]; T98G knock-down of ANXA1, treatment with Vincristin): 7.72
pEC50 ([2]; T98G knock-down of CLIC1, treatment with Vincristin): 7.57
pEC50 ([2]; T98G knock-down of PRDX1, treatment with Vincristin): 7.69
pEC50 ([2]; T98G knock-down of VIL2, treatment with Vincristin): 7.45
pEC50 ([2]; T98G knock-down series, control cell line (Kontrolle), treatment with Vincristin): 8.00
pEC50 ([2]; T98G overexpressing ANXA1, treatment with Vincristin): 8.38
pEC50 ([2]; T98G overexpressing CLIC1, treatment with Vincristin): 8.43
pEC50 ([2]; T98G overexpressing PRDX1, treatment with Vincristin): 8.02
pEC50 ([2]; T98G overexpressing VIL2, treatment with Vincristin): 7.62
pEC50 ([2]; T98G overexpression series, control cell line (Kontrolle), treatment with Vincristin): 7.49
Verschiebung der Konzentrationen (Dosis-Wirkungs-Kurven) ([3]; cell lines overexpressing the biomarkers): Verschiebung zu niedrigeren Konzentrationen
Verschiebung der Konzentrationen (Dosis-Wirkungs-Kurven) ([3]; knock-down of the biomarkers): höhere Konzentrationen notwendig
